Data from patent publication US20200237743A1, “CRAC CHANNEL MODULATORS FOR TREATING ESOPHAGEAL CANCER” (Rhizen Pharmaceuticals SA, priority 2017, published 2020).

Tests used:
[1] = tested on: NF-κB/p65 nuclear translocation in KYSE-150 cells; assay: NF-κB/p65 nuclear translocation upon serum stimulation in ESCC cells; assay type: cell-based, human; conditions: 10% FBS stimulation 1 h (about 84% without treatment)
Experimental: (§1) Compound (A) was tested on blocking nuclear factor kappa B (NF-κB/p65) nuclear translocation upon serum stimulation in ESCC cells. KYSE-150 cells were starved in medium supplemented with 0.1% FBS for 24 h. […] Upon 10% FBS stimulation for 1 h, NF-κB/p65 appeared to translocate to nuclei evidenced by co-localization of nuclei in about 84% of KYSE-150 cells.

[2] = tested on: NF-κB/p65 in tumor tissues; assay: Immunofluorescence staining of xenograft tumor tissues (nuclear NF-κB/p65, cyclin D1); assay type: in vivo, mouse
Experimental: (§2) The anti-tumor effect of Compound (A) was determined in a KYSE-150 mouse xenograft model. Briefly, 10^6 cells were injected into the flank region. Mice were randomized according to body weight into two groups of five. A week after tumor cell injection, mice either received the vehicle or intra-peritoneal administration of Compound (A) at 20 mg/kg every 2 days for a 2 week period. At the end of the study period, animals were sacrificed and the tumors harvested.
as §1

[3] = tested on: KYSE-150 mouse xenograft model; assay: Anti-tumor effect in esophageal cancer xenograft; assay type: in vivo; conditions: 20 mg/kg intra-peritoneal every 2 days for 2 weeks, KYSE-150 xenograft mice
Experimental: as §2

KYSE-70 = assay: Anti-proliferative effect in human ESCC cell lines (MTT assay); assay type: cell-based; conditions: KYSE-70, MTT, 48-72 h incubation, read-out: IC50, cell viability
Experimental: (§3) ESCC cell lines (KYSE-30, KYSE-150, KYSE-790, and KYSE-70) were plated in 96-well plates and incubated with desired concentrations of Compound A for 48-72 h. At the end of the incubation period, MTT (3-(4,5-dimethylthiazol-2-yl)-2,5-diphenyltetrazolium bromide) was added. The plate was placed on a shaker for 5 min to mix the formazan and the optical density at 560 nm was measured on a spectrophotometer. Data were plotted using Graphpad Prism for calculation of the IC50 concentrations.

KYSE-30 = assay: as above; assay type: cell-based; conditions: KYSE-30, MTT, 48-72 h incubation, read-out: IC50, cell viability
Experimental: as §3

KYSE-150 = assay: as above; assay type: cell-based; conditions: KYSE-150, MTT, 48-72 h incubation, read-out: IC50, cell viability
Experimental: as §3

KYSE-780 = assay: as above; assay type: cell-based; conditions: KYSE-780, MTT, 48-72 h incubation, read-out: IC50, cell viability

Structure (SMILES)	number of cells with NF-κB/p65 nuclear localization ([1]; 20 μM) [%]	nuclear NF-κB/p65 positive cells number in tumor tissues ([2]; immunofluorescence of tumor tissues, 41% in control animals) [%]	expression of cyclin D1 in tumors compared with control group animals ([2]; tumors removed from treated animals)	tumor growth compared to vehicle treated control group [3]	number of cells with NF-κB/p65 nuclear localization ([1]; 10 μM) [%]	IC50 (KYSE-70) [nM]	IC50 (KYSE-30) [nM]	IC50 (KYSE-150) [nM]	IC50 (KYSE-780) [nM]
Cc1nnsc1C(=O)Nc1ccc(-n2nc(C(F)(F)F)cc2C(F)(F)F)cc1 [BTP-2, reference compound]	8.53	–	–	–	–	–	–	–	–
O=C(Cc1ccc2ncccc2c1)Nc1ccc(-n2nc(C3CC3)cc2C2CC2)cc1 [Compound (A), N-(4-(3,5-dicyclopropyl-1H-pyrazol-1-yl)phenyl)-2-(quinolin-6-yl)acetamide]	–	9	dramatically reduced	significantly reduced tumor growth	10.52	1400	1200	1400	5500
